The results in this text go back to patent US11566007B2, “Ras inhibitors” (Revolution Medicines, Inc., priority 2019, dated 2023).

In one experiment the target is NRAS Q61R (Homo sapiens (Human), UniProt P01111+P62937, Q61R). Put plainly: Ras-Raf (BRAF RBD) disruption / FRET / MOA assay, NRAS Q61R. The experiment is classed as biochemical. Conditions: NRAS Q61R; Ras-Raf disruption/FRET/MOA assay; read-out: IC50* NRAS Q61R FRET data. An outline of the steps: (§1)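 Compounds (30 μM top final, 10-point 3-fold dilutions) incubated 3 h at 25° C with nucleotide-loaded Ras, cyclophilin A and BRAF RBD. Detection with 10 nM anti-His Eu-W1024 and 50 nM anti-GST allophycocyanin over another 1.5 h. Lowered TR-FRET ratio relative to DMSO wells gives IC50.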

For the next experiment, the target named is KRAS G12D (Homo sapiens (Human), UniProt P01116+P62937, G12D). Put plainly: Ras-Raf (BRAF RBD) disruption / FRET / MOA assay, KRAS G12D. To be noted: Ras-Raf disruption/FRET/MOA assay; class symbols; read-out: KRAS G12D FRET data IC50. It is filed as biochemical. An outline of the steps:
(§2)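 A 10-point, 3-fold dilution series topping at 30 μM final was incubated 3 h at 25° C with the Ras/cyclophilin A/BRAF RBD mixture.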

The target in another experiment is NRAS G12C (Homo sapiens (Human), UniProt P01111+P62937, G12C). Put plainly: Ras-Raf (BRAF RBD) disruption / FRET / MOA assay, NRAS G12C. It is filed as biochemical. Conditions: read-out: IC50* NRAS G12C FRET data. In outline:
as §2

The target of the next experiment is NRAS Q61K (Homo sapiens (Human), UniProt P01111+P62937, Q61K). The experiment is described as follows: Ras-Raf (BRAF RBD) disruption / FRET / MOA assay, NRAS Q61K. It is filed as biochemical. Conditions: NRAS Q61K; Ras-Raf disruption/FRET/MOA assay; read-out: IC50* NRAS Q61K FRET data. In outline:
as §1

In a further experiment the target is NRAS WT (Homo sapiens (Human), UniProt P01111+P62937). The experiment is described as follows: Ras-Raf (BRAF RBD) disruption / FRET / MOA assay, NRAS WT. The experiment is classed as biochemical. To be noted: read-out: IC50* NRAS WT FRET data. In outline:
as §1

The subject of another experiment is NCI-H358 (K-Ras G12C). The experiment is described as follows: CellTiter-Glo cell viability assay, NCI-H358. The experiment is classed as cell-based, human. To be noted: Homo sapiens, NCI-H358, 120 h, NCI-H358, 5-day treatment; class symbols; read-out: Additional H358 Cell Viability assay data (K-Ras G12C, IC50). In outline:
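Compounds dispensed directly onto seeded K-Ras mutant cells; plates read on day 5 after ~30 min equilibration to room temperature, by CellTiter-Glo luminescence. Signal normalized as (sample/mean DMSO)×100, then fitted to a four-parameter logistic curve.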
Background: In ATP-based viability assays light output follows the ATP content of the culture.

For a further experiment, the target named is KRAS G13D (Homo sapiens (Human), UniProt P01116+P62937, G13D). The experiment is described as follows: Ras-Raf (BRAF RBD) disruption / FRET / MOA assay, KRAS G13D. Conditions: read-out: IC50* KRAS G13D FRET data. It is filed as biochemical. An outline of the steps: as §2
For a further experiment, the target named is KRAS Q61H (Homo sapiens (Human), UniProt P01116+P62937, Q61H). The experiment is described as follows: Ras-Raf (BRAF RBD) disruption / FRET / MOA assay, KRAS Q61H. It is filed as biochemical. Conditions: Ras-Raf disruption/FRET/MOA assay; class symbols; read-out: KRAS Q61H FRET data IC50. In outline:
as §1

In another experiment the target is KRAS WT (Homo sapiens (Human), UniProt P01116+P62937). The experiment is described as follows: Ras-Raf (BRAF RBD) disruption / FRET / MOA assay, KRAS WT. The experiment is classed as biochemical. To be noted: read-out: IC50* KRAS WT FRET data. In outline: as §2
For the next experiment, the target named is K-Ras G12C (Homo sapiens (Human), UniProt P01116+P62937, G12C). The experiment is described as follows: Ras-Raf (BRAF RBD) disruption / FRET / MOA assay, KRAS G12C. To be noted: KRAS G12C; Ras-Raf disruption/FRET/MOA assay; read-out: IC50* KRAS G12C FRET data. It is filed as biochemical. An outline of the steps:
as §2

The target in the next experiment is K-Ras G13C (Homo sapiens (Human), UniProt P01116+P62937, G13C). The experiment is described as follows: Ras-Raf (BRAF RBD) disruption / FRET / MOA assay, KRAS G13C. The experiment is classed as biochemical. Conditions: KRAS G13C; Ras-Raf disruption/FRET/MOA assay; read-out: IC50* KRAS G13C FRET data. An outline of the steps:
as §2

A further experiment addresses KRAS G12V (Homo sapiens (Human), UniProt P01116+P62937, G12V). Put plainly: Ras-Raf (BRAF RBD) disruption / FRET / MOA assay, KRAS G12V. It is filed as biochemical. To be noted: read-out: IC50* KRAS G12V FRET data. In outline: as §2
In another experiment the target is KRAS G12S (Homo sapiens (Human), UniProt P01116+P62937, G12S). Put plainly: Ras-Raf (BRAF RBD) disruption / FRET / MOA assay, KRAS G12S. The experiment is classed as biochemical. Conditions: Ras-Raf disruption/FRET/MOA assay; class symbols; read-out: KRAS G12S FRET data IC50. An outline of the steps:
as §2

Where only a bound is given, the exact number is not on record here.

Chain of KRAS G12V (P01116-2 other isoform, or with tags, fused parts or gaps G12V): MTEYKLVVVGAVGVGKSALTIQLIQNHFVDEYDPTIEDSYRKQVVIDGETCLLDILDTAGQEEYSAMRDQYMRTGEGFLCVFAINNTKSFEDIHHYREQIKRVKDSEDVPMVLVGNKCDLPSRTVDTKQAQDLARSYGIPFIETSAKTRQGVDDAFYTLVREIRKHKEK
Chain of KRAS G12V (P62937 whole entry): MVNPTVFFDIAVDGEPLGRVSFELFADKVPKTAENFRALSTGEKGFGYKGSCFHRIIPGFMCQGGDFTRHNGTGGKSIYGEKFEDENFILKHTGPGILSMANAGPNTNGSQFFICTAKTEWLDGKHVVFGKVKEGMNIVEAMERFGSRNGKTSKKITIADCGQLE
Chain of KRAS Q61H (P01116-2 other isoform, or with tags, fused parts or gaps Q61H): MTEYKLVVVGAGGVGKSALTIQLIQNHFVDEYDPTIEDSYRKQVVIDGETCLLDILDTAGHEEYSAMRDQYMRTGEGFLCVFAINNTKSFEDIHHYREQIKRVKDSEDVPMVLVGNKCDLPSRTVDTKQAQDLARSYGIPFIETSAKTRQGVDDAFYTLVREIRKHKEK
Chain of KRAS Q61H (P62937 whole entry): as the sequence (P62937 whole entry) above
Chain of KRAS G13D (P01116-2 other isoform, or with tags, fused parts or gaps G13D): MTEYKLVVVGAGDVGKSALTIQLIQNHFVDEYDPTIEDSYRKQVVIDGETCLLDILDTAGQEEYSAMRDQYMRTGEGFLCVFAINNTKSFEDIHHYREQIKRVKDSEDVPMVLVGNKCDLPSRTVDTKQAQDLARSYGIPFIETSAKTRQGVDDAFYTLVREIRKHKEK
Chain of KRAS G13D (P62937 whole entry): as the sequence (P62937 whole entry) above
Chain of KRAS WT (P01116-2 other isoform, or with tags, fused parts or gaps): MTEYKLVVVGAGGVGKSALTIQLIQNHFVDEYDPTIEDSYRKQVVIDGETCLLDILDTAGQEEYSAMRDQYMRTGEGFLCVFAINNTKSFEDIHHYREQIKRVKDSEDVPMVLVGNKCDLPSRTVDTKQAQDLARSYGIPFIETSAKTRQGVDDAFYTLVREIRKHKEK
Chain of KRAS WT (P62937 whole entry): as the sequence (P62937 whole entry) above
Chain of KRAS G12S (P01116-2 other isoform, or with tags, fused parts or gaps G12S): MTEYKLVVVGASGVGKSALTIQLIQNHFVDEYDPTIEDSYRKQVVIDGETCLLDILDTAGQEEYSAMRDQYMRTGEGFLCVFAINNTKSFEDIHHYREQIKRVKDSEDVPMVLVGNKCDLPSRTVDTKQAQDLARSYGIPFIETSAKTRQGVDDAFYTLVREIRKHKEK
Chain of KRAS G12S (P62937 whole entry): as the sequence (P62937 whole entry) above
Chain of NRAS G12C (P01111 whole entry G12C): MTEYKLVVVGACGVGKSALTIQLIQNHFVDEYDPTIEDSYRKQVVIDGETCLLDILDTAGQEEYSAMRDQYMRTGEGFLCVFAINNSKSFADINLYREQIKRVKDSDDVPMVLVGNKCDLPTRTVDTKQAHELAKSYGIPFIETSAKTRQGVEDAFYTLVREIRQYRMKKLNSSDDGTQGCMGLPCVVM
Chain of NRAS G12C (P62937 whole entry): as the sequence (P62937 whole entry) above
Chain of NRAS Q61K (P01111 whole entry Q61K): as the sequence (P01111 whole entry G12C) above, with C12G, Q61K counted along it
Chain of NRAS Q61K (P62937 whole entry): as the sequence (P62937 whole entry) above
Chain of NRAS Q61R (P01111 whole entry Q61R): as the sequence (P01111 whole entry G12C) above, with C12G, Q61R counted along it
Chain of NRAS Q61R (P62937 whole entry): as the sequence (P62937 whole entry) above
Chain of KRAS G12D (P01116-2 other isoform, or with tags, fused parts or gaps G12D): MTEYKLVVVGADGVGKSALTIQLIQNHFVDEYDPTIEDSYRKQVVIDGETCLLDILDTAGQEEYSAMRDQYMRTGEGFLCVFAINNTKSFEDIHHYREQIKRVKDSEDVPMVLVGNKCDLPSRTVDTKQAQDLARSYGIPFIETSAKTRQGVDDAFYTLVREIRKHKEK
Chain of KRAS G12D (P62937 whole entry): as the sequence (P62937 whole entry) above
Chain of NRAS WT (P01111 whole entry): as the sequence (P01111 whole entry G12C) above, with C12G counted along it
Chain of NRAS WT (P62937 whole entry): as the sequence (P62937 whole entry) above
Chain of K-Ras G12C (P01116-2 other isoform, or with tags, fused parts or gaps G12C): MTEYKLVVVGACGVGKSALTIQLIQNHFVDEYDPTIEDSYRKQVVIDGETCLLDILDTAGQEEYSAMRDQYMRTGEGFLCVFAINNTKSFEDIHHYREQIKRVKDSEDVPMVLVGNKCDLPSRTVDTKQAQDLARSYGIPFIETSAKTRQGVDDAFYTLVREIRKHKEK
Chain of K-Ras G12C (P62937 whole entry): as the sequence (P62937 whole entry) above
Chain of K-Ras G13C (P01116-2 other isoform, or with tags, fused parts or gaps G13C): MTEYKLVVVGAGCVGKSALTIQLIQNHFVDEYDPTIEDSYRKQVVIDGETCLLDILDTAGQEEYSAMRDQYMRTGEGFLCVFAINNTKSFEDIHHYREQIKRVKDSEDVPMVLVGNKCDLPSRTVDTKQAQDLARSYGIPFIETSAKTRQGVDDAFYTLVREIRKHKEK
Chain of K-Ras G13C (P62937 whole entry): as the sequence (P62937 whole entry) above

In general, IC50 refers to the concentration at which inhibition is half-maximal. Take `C=CC(=O)N1CC[C@H](C(=O)N(C)[C@H](C(=O)N[C@H]2CC3=NN=C(S3)c3ccc4c(c3)c(c(-c3cccnc3[C@H](C)OC)n4CC)CC(C)(C)COC(=O)[C@@H]3CCCN(N3)C2=O)C(C)C)C1` (atropisomer, axis not shown) [Example A248]: the IC50 is greater than 10 µM on NRAS Q61R; greater than 10 µM on KRAS G12D; 1 to 10 µM at NRAS G12C; greater than 10 µM on NRAS Q61K; greater than 10 µM at NRAS WT; greater than 1 µM in the experiment with NCI-H358 (K-Ras G12C). Also, the half-inhibitory concentration (IC50) is greater than 10 µM at KRAS G13D; greater than 10 µM on KRAS Q61H; greater than 10 µM on KRAS WT; 1 to 10 µM at K-Ras G12C; greater than 10 µM at K-Ras G13C; greater than 10 µM on KRAS G12V. Also, the IC50 at KRAS G12S was greater than 10 µM.

As for `CC#CC(=O)N1CC[C@H](C(=O)N(C)[C@H](C(=O)N[C@H]2Cc3cccc(c3)-c3ccc4c(c3)c(c(-c3cccnc3[C@H](C)OC)n4C#N)CC(C)(C)COC(=O)[C@@H]3CCCN(N3)C2=O)C(C)C)C1` (atropisomer, axis not shown) [Example A304], the IC50 at NRAS Q61R is greater than 10 µM; on KRAS G12D, greater than 10 µM; at NRAS G12C, greater than 10 µM; at NRAS Q61K it was greater than 10 µM; on NRAS WT it was greater than 10 µM; in the experiment with NCI-H358 (K-Ras G12C), 0.1 to 1 µM. The 50% inhibitory concentration (IC50) at KRAS G13D, at KRAS Q61H, on KRAS WT, at K-Ras G12C, on K-Ras G13C and on KRAS G12V was greater than 10 µM throughout. For the same molecule, at KRAS G12S, the IC50 was greater than 10 µM.

For the molecule `C=CC(=O)N(C)C(=O)N(C)[C@H](C(=O)N[C@H]1Cc2nc(cs2)-c2ccc3c(c2)c(c(-c2cccnc2[C@H](C)OC)n3CC)CC(C)(C)COC(=O)[C@@H]2CCCN(N2)C1=O)C(C)C` (atropisomer, axis not shown) [Example A355], the IC50 on NRAS Q61R was greater than 10 µM; on KRAS G12D, greater than 10 µM; on NRAS G12C, greater than 10 µM; on NRAS Q61K, greater than 10 µM; on NRAS WT it was greater than 10 µM; in the experiment with NCI-H358 (K-Ras G12C), 0.1 to 1 µM. The IC50 at KRAS G13D, at KRAS Q61H, at KRAS WT, on K-Ras G12C, at K-Ras G13C and at KRAS G12V was greater than 10 µM in each case. In addition, the IC50 at KRAS G12S was greater than 10 µM.

`C=CC(=O)N1CC[C@H](C(=O)N(C)[C@H](C(=O)N[C@H]2Cc3cccc(c3)-c3ccc4c(c3)c(c(-c3cnn(C)c3CN(C)C)n4CC)CC(C)(C)COC(=O)[C@@H]3CCCN(N3)C2=O)C(C)C)C1` (relative stereo) [Example A329]: the IC50 on NRAS Q61R was greater than 10 µM; on KRAS G12D it was greater than 10 µM; on NRAS G12C, greater than 10 µM; on NRAS Q61K it was greater than 10 µM; at NRAS WT, greater than 10 µM; in the experiment on NCI-H358 (K-Ras G12C), 0.1 to 1 µM. For the same molecule, the concentration for half-maximal inhibition (IC50) at KRAS G13D, on KRAS Q61H, on KRAS WT, on K-Ras G12C, on K-Ras G13C and at KRAS G12V was greater than 10 µM in each case. For the same molecule, the 50% inhibitory concentration (IC50) at KRAS G12S is greater than 10 µM.

For the molecule `C=CC(=O)N1CC[C@H](C(=O)N(C)[C@H](C(=O)N[C@H]2Cc3cc(O)cc(c3)-c3cc4c(c(-c5ccccc5CCOC)n(CC)c4cn3)CC(C)(C)COC(=O)[C@@H]3CCCN(N3)C2=O)C(C)C)C1` [Example A102], the 50% inhibitory concentration (IC50) at NRAS Q61R was greater than 10 µM; at KRAS G12D, greater than 10 µM; at NRAS G12C, 1 to 10 µM; at NRAS Q61K, greater than 10 µM; at NRAS WT, greater than 10 µM; with NCI-H358 (K-Ras G12C), greater than 1 µM. In addition, the IC50 on KRAS G13D is greater than 10 µM; at KRAS Q61H, 1 to 10 µM; on KRAS WT it was greater than 10 µM; on K-Ras G12C, 1 to 10 µM; on K-Ras G13C it was greater than 10 µM; on KRAS G12V, greater than 10 µM. The IC50 on KRAS G12S was greater than 10 µM.
